Experimental data reported in US6855712B2, “Combination of benzoquinazoline antifolates and protecting agents” (SmithKline Beecham Corporation, priority 1992, dated 2005).

How the values were obtained:
human tumor GC3TK = test: Mouse antitumor: human tumor GC3TK in the subrenal capsule of nude mice, Compound A ip bolus for five days; format: in vivo
beagle dogs = test: Dog toxicity of Compound A given as iv bolus for five consecutive days, with or without oral folic acid or leucovorin; format: in vivo

Cc1nc2ccc3ccc(CNc4ccc5c(c4)CN([C@@H](CCC(=O)O)C(=O)O)C5=O)cc3c2c(=O)[nH]1 [Compound A, (S)-2-(5-(((1,2-Dihydro-3-methyl-1-oxobenzo[f]quinazolin-9-yl)methyl)amino)-1-oxo-2-isoindolinyl)glutaric acid]
Mouse antiumor (% I) (human tumor GC3TK; 3.2 mg/kg Compound A, folic acid 0 mg/kg, experiment with 50 mg/kg folic acid): 100 % I
Mouse antitumor (% I) (human tumor GC3TK; 3.2 mg/kg Compound A, folic acid 0 mg/kg, experiment with 500 mg/kg folic acid): 89 % I
Mouse antiumor (% I) (human tumor GC3TK; 3.2 mg/kg Compound A, folic acid 50 mg/kg): 100 % I
Mouse antitumor (% I) (human tumor GC3TK; 3.2 mg/kg Compound A, folic acid 500 mg/kg): 78 % I
Mouse antitumor (% I) (human tumor GC3TK; 3.2 mg/kg Compound A, leucovorin 0 mg/kg): 100 % I
Mouse antitumor (% I) (human tumor GC3TK; 3.2 mg/kg Compound A, leucovorin 200 mg/kg): 100 % I
inhibition of tumor growth (human tumor GC3TK; 3.2 mg/kg ip bolus for five days, no protectant): complete inhibition of tumor growth
Mouse antitumor (% I) (human tumor GC3TK; 10 mg/kg Compound A, folic acid 0 mg/kg, experiment with 50 mg/kg folic acid): >100 % I
Mouse antitumor (% I) (human tumor GC3TK; 10 mg/kg Compound A, folic acid 0 mg/kg, experiment with 500 mg/kg folic acid): >100 % I
Mouse antitumor (% I) (human tumor GC3TK; 10 mg/kg Compound A, folic acid 50 mg/kg): >100 % I
Mouse antitumor (% I) (human tumor GC3TK; 10 mg/kg Compound A, folic acid 500 mg/kg): >100 % I
Mouse antitumor (% I) (human tumor GC3TK; 10 mg/kg Compound A, leucovorin 0 mg/kg): >100 % I
Mouse antitumor (% I) (human tumor GC3TK; 10 mg/kg Compound A, leucovorin 200 mg/kg): >100 % I
inhibition of tumor growth (human tumor GC3TK; 10 mg/kg ip bolus for five days, no protectant): complete inhibition of tumor growth
inhibition of tumor growth (human tumor GC3TK; 50 mg/kg folic acid orally 30 minutes prior to the ip bolus dose of Compound A (3.2 or 10 mg/kg)): complete inhibition of tumor growth
inhibition of tumor growth (human tumor GC3TK; 200 mg/kg leucovorin orally 30 minutes prior to the ip bolus dose of Compound A (3.2 or 10 mg/kg)): complete inhibition of tumor growth
inhibition (human tumor GC3TK; another experiment, 3.2 mg/kg, absence of protectant): 89%
growth inhibition (human tumor GC3TK; another experiment, 10 mg/kg, absence of protectant): complete growth inhibition
tumor growth inhibition versus absence of folic acid (human tumor GC3TK; another experiment, 500 mg/kg folic acid orally 30 min prior to Compound A): not significantly different
lethality (beagle dogs; 8 mg/kg iv bolus for five consecutive days, alone): lethal
deaths (beagle dogs; 10 mg/kg iv 30 minutes after oral leucovorin (Wellcovorin) 10 mg/kg): no deaths occurred
deaths (beagle dogs; 10 mg/kg iv 30 minutes after oral leucovorin (Wellcovorin) 50 mg/kg): no deaths occurred
deaths (beagle dogs; 10 mg/kg iv 30 minutes after oral leucovorin (Wellcovorin) 100 mg/kg): no deaths occurred
deaths (beagle dogs; 10 mg/kg iv 30 minutes after oral leucovorin (Wellcovorin) 200 mg/kg): no deaths occurred
lethality (beagle dogs; 10 mg/kg iv, five consecutive days, given alone): lethal
lethality (beagle dogs; 20 mg/kg iv bolus 30 minutes after oral folic acid 50 mg/kg): not lethal
